Tests used:
Myeloperoxidase [1] = biological target: T1, Myeloperoxidase (Homo sapiens, UniProt P05164)
T1 sequence (P05164 whole entry): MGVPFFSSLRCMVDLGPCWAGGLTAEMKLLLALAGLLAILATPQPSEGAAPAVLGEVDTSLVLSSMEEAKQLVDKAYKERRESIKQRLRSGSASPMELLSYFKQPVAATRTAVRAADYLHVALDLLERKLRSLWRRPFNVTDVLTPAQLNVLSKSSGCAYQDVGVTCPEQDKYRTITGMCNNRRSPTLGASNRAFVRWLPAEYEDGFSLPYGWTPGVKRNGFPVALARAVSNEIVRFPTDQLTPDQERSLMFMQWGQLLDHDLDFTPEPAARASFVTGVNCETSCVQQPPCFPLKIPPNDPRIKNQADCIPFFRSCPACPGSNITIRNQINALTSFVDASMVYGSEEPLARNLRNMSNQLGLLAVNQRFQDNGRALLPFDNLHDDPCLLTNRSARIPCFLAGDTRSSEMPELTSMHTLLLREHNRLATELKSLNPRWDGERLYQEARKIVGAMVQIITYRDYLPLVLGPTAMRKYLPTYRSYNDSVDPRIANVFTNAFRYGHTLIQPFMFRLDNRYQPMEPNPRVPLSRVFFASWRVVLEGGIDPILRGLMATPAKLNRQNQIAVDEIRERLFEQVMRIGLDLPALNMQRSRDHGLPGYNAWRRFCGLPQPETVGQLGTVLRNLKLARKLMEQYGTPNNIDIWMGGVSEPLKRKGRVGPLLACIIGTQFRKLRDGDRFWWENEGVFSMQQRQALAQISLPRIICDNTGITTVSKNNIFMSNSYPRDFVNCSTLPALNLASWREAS
Description: Inhibition of MPO (unknown origin) chlorination activity incubated for 10 mins followed by NaCl addition by aminophenyl fluorescein assay

Thyroid peroxidase = biological target: T2, Thyroid peroxidase (Homo sapiens, UniProt P07202); assay: (§1) Inhibition of C-terminal hexaHis-tagged TPO (unknown origin) expressed in Trichoplusia ni insect cells using 3-iodo tyrosine as substrate preincubated for 10 mins followed by substrate and H2O2 addition and further incubated for 15 mins
T2 sequence (P07202 whole entry): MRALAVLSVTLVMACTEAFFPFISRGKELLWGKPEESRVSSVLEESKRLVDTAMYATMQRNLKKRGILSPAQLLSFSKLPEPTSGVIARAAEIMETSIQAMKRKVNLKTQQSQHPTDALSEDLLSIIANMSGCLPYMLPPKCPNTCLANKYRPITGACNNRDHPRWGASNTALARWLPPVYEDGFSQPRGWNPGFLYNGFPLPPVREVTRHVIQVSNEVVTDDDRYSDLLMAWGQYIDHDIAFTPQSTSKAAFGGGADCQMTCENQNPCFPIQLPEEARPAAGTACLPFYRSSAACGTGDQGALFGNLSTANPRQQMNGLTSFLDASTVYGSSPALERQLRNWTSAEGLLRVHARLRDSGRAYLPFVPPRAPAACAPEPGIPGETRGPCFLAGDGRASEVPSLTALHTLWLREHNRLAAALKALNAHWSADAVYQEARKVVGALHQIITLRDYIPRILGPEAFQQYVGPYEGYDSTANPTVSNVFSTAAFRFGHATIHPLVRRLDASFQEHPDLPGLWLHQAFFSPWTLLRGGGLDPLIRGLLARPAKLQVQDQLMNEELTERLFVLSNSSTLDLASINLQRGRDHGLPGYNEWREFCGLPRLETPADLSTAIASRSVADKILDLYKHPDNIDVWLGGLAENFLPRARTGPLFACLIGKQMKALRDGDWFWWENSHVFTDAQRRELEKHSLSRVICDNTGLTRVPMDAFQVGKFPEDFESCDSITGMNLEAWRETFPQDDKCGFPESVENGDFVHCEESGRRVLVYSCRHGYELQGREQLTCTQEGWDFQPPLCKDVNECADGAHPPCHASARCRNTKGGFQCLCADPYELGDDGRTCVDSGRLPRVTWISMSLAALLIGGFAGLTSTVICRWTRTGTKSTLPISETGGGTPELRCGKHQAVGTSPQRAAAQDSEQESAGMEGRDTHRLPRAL

Cytochrome P450 3A4 = Cytochrome P450 3A4 (Homo sapiens, UniProt P08684); assay: Time dependent inhibition of CYP3A4 (unknown origin) measured at 30 mins; format: ADME
Cytochrome P450 3A4, sequence (P08684 whole entry): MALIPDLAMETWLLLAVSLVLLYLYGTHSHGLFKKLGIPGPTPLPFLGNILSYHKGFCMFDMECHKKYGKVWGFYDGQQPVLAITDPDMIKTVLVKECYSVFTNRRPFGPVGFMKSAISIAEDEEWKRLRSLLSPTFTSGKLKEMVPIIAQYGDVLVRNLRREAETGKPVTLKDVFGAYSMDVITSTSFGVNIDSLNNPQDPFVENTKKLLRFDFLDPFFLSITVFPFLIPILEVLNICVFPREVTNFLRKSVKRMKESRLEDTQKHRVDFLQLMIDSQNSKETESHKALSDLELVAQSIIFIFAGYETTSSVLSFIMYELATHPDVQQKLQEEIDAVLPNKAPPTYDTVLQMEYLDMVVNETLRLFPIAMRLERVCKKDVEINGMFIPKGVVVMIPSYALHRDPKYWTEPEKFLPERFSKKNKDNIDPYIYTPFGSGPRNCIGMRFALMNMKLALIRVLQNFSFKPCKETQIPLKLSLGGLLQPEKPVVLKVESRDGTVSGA

CYP3A4 = CYP3A4 (Homo sapiens, UniProt P08684); assay: Ratio of IC50 for time dependent inhibition of CYP3A4 (unknown origin) measured at 5 mins to IC50 for time dependent inhibition of CYP3A4 (unknown origin) measured at 30 mins; details: read-out: Ratio IC50
CYP3A4, sequence (P08684 whole entry): as above

Homo sapiens = organism: Homo sapiens; assay: as §1, with “Selectivity ratio” for “Inhibition”, “of IC50 for MPO (unknown origin) chlorination activity incubated for 10 mins followed by NaCl addition by aminophenyl fluorescein assay to IC50 for” for “of”
[2] = Protein binding in human plasma; format: ADME, cell-free; details: read-out: PPB (converted)
[3] = Half life in human liver microsomes; format: ADME, Microsome
Myeloperoxidase [4] = biological target: T1, Myeloperoxidase; assay: Inhibition of PMA-induced MPO in human Neutrophil incubated for 3 mins by luminometry; format: tissue-based
[5] = Half life in mouse at 1 mg/kg, iv; format: ADME, organism-based; details: in vivo
[6] = Volume of distribution at steady state in mouse at 1 mg/kg, iv; format: ADME, organism-based; details: in vivo, read-out: Vdss
[7] = Clearance in mouse at 1 mg/kg, iv; format: ADME, organism-based; details: in vivo
[8] = Permeability of the compound by PAMPA method; format: ADME

SMILES | IC50 (Myeloperoxidase [1]) [nM] | IC50 (Thyroid peroxidase) [nM] | IC50 (Cytochrome P450 3A4) [nM] | IC50 shift (CYP3A4) | also measured
Nc1cc(C2CCNC3CCC(CC3)COc3cccc(c3)Cn3cc2cn3)c2nn[nH]c2n1 (stereo not drawn) | 31 |  |  |  | 
Nc1cc(Cc2ccn(-c3cccc(-c4ccccc4)c3)n2)c2nn[nH]c2n1 | 85 | 710 | 7.1 | 2.4 | 
Nc1cc(Cc2ccn(-c3ccc(F)cc3)n2)c2nn[nH]c2n1 | 53 | 700 | 110 | 3.3 | 
Nc1cc(C2CCNCc3cccc(c3)Oc3cccc(c3)Cn3cc2cn3)c2nn[nH]c2n1 (stereo not drawn) | 36 |  |  |  | 
Nc1cc(Cc2ccn(Cc3ccccc3)n2)c2nn[nH]c2n1 | 120 | 2300 | 310 | 3.2 | 
Nc1cc(C2CCNCC(=O)N(CCc3ccccc3)Cc3cccc(c3)Cn3cc2cn3)c2nn[nH]c2n1 (stereo not drawn) | 29 |  |  |  | 
Nc1cc(Cc2ccn(-c3ccccc3)n2)c2nn[nH]c2n1 | 55 | 640 | 210 | 2.7 | 
Nc1cc(Cc2ccn(Cc3cccc(-c4ccccc4)c3)n2)c2nn[nH]c2n1 | 55 | 1100 | 17 | 2.8 | 
Nc1cc(Cc2ccn(Cc3ccc4c(c3)CCNC4)n2)c2nn[nH]c2n1 | 58 | 6700 | 7000 | 2.8 | Ratio IC50 (Homo sapiens): 120; fraction unbound [2]: 0.5; half-life [3]: > 2 h; IC50 (Myeloperoxidase [4]): 5000 nM
Nc1cc(Cc2ccn(-c3ccccn3)n2)c2nn[nH]c2n1 | 54 | 2000 | 210 | 3.2 | 
Nc1cc(Cc2ccn(Cc3cccc(O[C@H]4CCNC4)c3)n2)c2nn[nH]c2n1 | 46 | 14000 | 13000 | 1.6 | 
Nc1cc(Cc2ccn(Cc3cccc(Cc4ccccc4)c3)n2)c2nn[nH]c2n1 | 39 | 1900 | 37 | 2.8 | 
Nc1cc(Cc2ccn(Cc3cccc(Oc4ccccc4)c3)n2)c2nn[nH]c2n1 | 44 | 1100 | 11 | 2.9 | 
Nc1cc(Cc2ccn(Cc3ccc4ccccc4c3)n2)c2nn[nH]c2n1 | 52 | 1100 | 40 | 2.4 | 
Nc1cc(Cc2ccn(Cc3cccc(C4CCNCC4)c3)n2)c2nn[nH]c2n1 | 100 | 21000 | 3300 | 4.3 | fraction unbound [2]: 0.2; half-life [3]: > 2 h; half-life [5]: 1.2 h; Vd [6]: 0.2 L/kg; clearance [7]: 2.6 mL/min/kg; permeability [8]: Impermeable; IC50 (Myeloperoxidase [4]): 2400 nM
Nc1cc(Cc2ccn(Cc3ccc4cnccc4c3)n2)c2nn[nH]c2n1 | 140 | 1800 | 210 | 4.1 | 

Now those with a lower IC50 (Myeloperoxidase [1]), led by results:

IC50 (Myeloperoxidase [1]) [nM] | IC50 (Thyroid peroxidase) [nM] | IC50 (Cytochrome P450 3A4) [nM] | SMILES | IC50 shift (CYP3A4) | also measured
8 |  |  | Nc1cc(C2CCNCc3cccc(c3)OCc3cccc(c3)Cn3cc2cn3)c2nn[nH]c2n1 (stereo not drawn) |  | 
7 |  |  | Nc1cc(C2CCNC34CCC(c5ccccc5)(CC3)[C@H](C4)Oc3cccc(c3)Cn3cc2cn3)c2nn[nH]c2n1 (stereo partly drawn) |  | 
26 |  |  | Nc1cc(C2CCNCC3(CCCC3)COc3cccc(c3)Cn3cc2cn3)c2nn[nH]c2n1 (stereo not drawn) |  | 
17 |  |  | Nc1cc(C2CCNCCc3cccc(c3)OCc3cccc(c3)Cn3cc2cn3)c2nn[nH]c2n1 (stereo not drawn) |  | 
5 |  |  | Nc1cc([C@H]2CCN[C@H]3C[C@H](Cc4ccccc4)[C@@H](C3)Oc3cccc(c3)Cn3cc2cn3)c2nn[nH]c2n1 |  | 
25 |  |  | Nc1cc(C2CCNCc3cccc(c3)COc3cccc(c3)Cn3cc2cn3)c2nn[nH]c2n1 (stereo not drawn) |  | 
26 | 1700 | 140 | Nc1cc(Cc2ccn(Cc3cccc(Oc4cccc5c4CNC5)c3)n2)c2nn[nH]c2n1 | 3.3 | 
14 |  |  | Nc1cc(C2CCNCCc3cccc(c3)Oc3cccc(c3)Cn3cc2cn3)c2nn[nH]c2n1 (stereo not drawn) |  | 
21 |  |  | Nc1cc(C2CCNCCc3cccc(c3)-c3cccc(c3)Cn3cc2cn3)c2nn[nH]c2n1 (stereo not drawn) |  | 

From ChEMBL document CHEMBL4811247, “Small molecule and macrocyclic pyrazole derived inhibitors of myeloperoxidase (MPO)” (Bioorg Med Chem Lett, 2021)
